Experimental data: patent publication EP0210284B1, “1,3-Dithiol-2-ylidene derivatives” (priority 1985, dated 1987)

Each molecule was assayed on Acute Liver Injury Induced by Carbon Tetrachloride (assay: Protective effect on acute liver injury induced by carbon tetrachloride). Conditions: 50mg/kg orally in olive oil 6 hours before carbon tetrachloride (0.05ml/kg orally); visual score 0: normal, 2: slightly, 4: distinctly, 6: remarkably injured; n=5; CCl4 alone 6.0.
Assay type: in vivo, mice (ddY mice)
Description: A test compound was dissolved or suspended in olive oil and administered orally at a dose of 50mg/kg to mice (ddY mice, ? , 23 ± 2g, n=5). After 6 hours, carbon tetrachloride (0.05ml/kg) was administered orally. 24 Hours after the administration of carbon tetrachloride, BSP (sodium sulfobromophthalene; 75mg/kg) was administered intravenously. Thirty minutes later, the cardiac blood was collected, and GPT (glutamic-pyruvic transaminase) activity and the retention rate of BSP in the plasma were measured. Further, the liver injury immediately after the collection of the blood was visually observed and evaluated by the following score for liver damage index. 0: normal 2: Slightly injured 4: distinctly injured 6: remarkably injured
`CC(=O)C(C(=O)c1cccnc1)=C1SC=CS1` [Compound 21, 2-(1,3-dithiol-2-ylidene)-1-(3-pyridyl)-1,3-butanedione] was tested, and the “Liver Damage Index” value was 0.8.
With `CC(=O)C(C(=O)c1ccncc1)=C1SC=CS1` [Compound 22, 2-(1,3-dithiol-2-ylidene)-1-(4-pyridyl)-1,3-butanedione] the “Liver Damage Index” value was 0.2.
With `CCCC(=O)C(C(=O)c1ccccc1)=C1SC=CS1` [Compound 7, 2-(1,3-dithiol-2-ylidene)-1-phenyl-1,3-hexanedione] the “Liver Damage Index” value was 1.6.
In the case of `CC(=O)C(C(=O)c1cnccn1)=C1SC=CS1` [Compound 26, 2-(1,3-dithiol-2-ylidene)-1-pyrazinyl-1,3-butanedione], the “Liver Damage Index” value is reported as 0.4.
In the case of `COc1ccc(C(=O)C(C(C)=O)=C2SC=CS2)cc1OC` [Compound 18, 2-(1,3-dithiol-2-ylidene)-1-(3,4-dimethoxyphenyl)-1,3-butanedione], the “Liver Damage Index” value is reported as 0.4.
For `COc1ccc(C(=O)C(C(C)=O)=C2SC=CS2)cc1` [Compound 17, 2-(1,3-dithiol-2-ylidene)-1-(4-methoxyphenyl)-1,3-butanedione], the “Liver Damage Index” value was 0.
`COc1ccccc1C(=O)C(C(C)=O)=C1SC=CS1` [Compound 16, 2-(1,3-dithiol-2-ylidene)-1-(2-methoxyphenyl)-1,3-butanedione] was tested, and the “Liver Damage Index” value was 0.6.
In the case of `CC(=O)C(C(=O)c1ccc(Cl)cc1)=C1SC=CS1` [Compound 14, 2-(1,3-dithiol-2-ylidene)-1-(4-chlorophenyl)-1,3-butanedione], the “Liver Damage Index” value is reported as 0.4.
For `CC(=O)C(C(=O)c1ccc(N)cc1)=C1SC=CS1` [Compound 46, 2-(1,3-dithiol-2-ylidene)-1-(4-aminophenyl)-1,3-butanedione], the “Liver Damage Index” value was 0.4.
`CC(=O)C(C(=O)c1ccc(C)cc1)=C1SC=CS1` [Compound 12, 2-(1,3-dithiol-2-ylidene)-1-(4-methylphenyl)-1,3-butanedione] was tested, and the “Liver Damage Index” value was 0.6.
In the case of `O=C(C(C(=O)c1ccc(Cl)cc1)=C1SC=CS1)c1ccc(Cl)cc1` [Compound 35, 2-(1,3-dithiol-2-ylidene)-1,3-di(4-chlorophenyl)-1,3-propanedione], the “Liver Damage Index” value is reported as 0.
`CC(=O)C(C(=O)c1cc2ccccc2[nH]1)=C1SC=CS1` [Compound 29, 2-(1,3-dithiol-2-ylidene)-1-(2-indolyl)-1,3-butanedione] was tested, and the “Liver Damage Index” value was 0.8.
In the case of `CC(=O)C(C(=O)Cc1ccccc1)=C1SC=CS1` [Compound 32, 3-(1,3-dithiol-2-ylidene)-1-phenyl-2,4-pentanedione], the “Liver Damage Index” value is reported as 0.4.
For `O=C(C(C(=O)C(F)(F)F)=C1SC=CS1)c1ccccc1` [Compound 31, 2-(1,3-dithiol-2-ylidene)-1-phenyl-4,4,4-trifluoro-1,3-butanedione], the “Liver Damage Index” value was 0.4.
For `O=C(C=Cc1ccccc1)C(C(=O)c1ccccc1)=C1SC=CS1` [Compound 38, 4-(1,3-dithiol-2-ylidene)-1,5-diphenyl-1-pentene-3,5-dione], the “Liver Damage Index” value was 3.2.
`CC(=O)C(C(=O)c1ccc(Br)cc1)=C1SC=CS1` [Compound 15, 2-(1,3-dithiol-2-ylidene)-1-(4-bromophenyl)-1,3-butanedione] was tested, and the “Liver Damage Index” value was 3.2.

Same assay, conditions: Mus musculus, po, 24.5 h; 50mg/kg orally 6 hours before carbon tetrachloride (0.05ml/kg orally); retention rate of BSP in plasma 30 minutes after BSP 75mg/kg i.v.; CCl4 alone 0, Normal 100; read-out: % Prophylaxis BSP
`CC(=O)C(C(=O)c1cccnc1)=C1SC=CS1` [Compound 21, 2-(1,3-dithiol-2-ylidene)-1-(3-pyridyl)-1,3-butanedione] gave an inhibition in vivo at 50 mg/kg of 100%.
Work on `CC(=O)C(C(=O)c1ccncc1)=C1SC=CS1` [Compound 22, 2-(1,3-dithiol-2-ylidene)-1-(4-pyridyl)-1,3-butanedione] yielded an inhibition in vivo at 50 mg/kg of 120%.
For `CCCC(=O)C(C(=O)c1ccccc1)=C1SC=CS1` [Compound 7, 2-(1,3-dithiol-2-ylidene)-1-phenyl-1,3-hexanedione], the inhibition in vivo at 50 mg/kg was 108%.
In the case of `CC(=O)C(C(=O)c1cnccn1)=C1SC=CS1` [Compound 26, 2-(1,3-dithiol-2-ylidene)-1-pyrazinyl-1,3-butanedione], the inhibition in vivo at 50 mg/kg is reported as 99%.
In the case of `COc1ccc(C(=O)C(C(C)=O)=C2SC=CS2)cc1OC` [Compound 18, 2-(1,3-dithiol-2-ylidene)-1-(3,4-dimethoxyphenyl)-1,3-butanedione], the inhibition in vivo at 50 mg/kg is reported as 100%.
For `COc1ccc(C(=O)C(C(C)=O)=C2SC=CS2)cc1` [Compound 17, 2-(1,3-dithiol-2-ylidene)-1-(4-methoxyphenyl)-1,3-butanedione], the inhibition in vivo at 50 mg/kg was 100%.
In the case of `COc1ccccc1C(=O)C(C(C)=O)=C1SC=CS1` [Compound 16, 2-(1,3-dithiol-2-ylidene)-1-(2-methoxyphenyl)-1,3-butanedione], the inhibition in vivo at 50 mg/kg is reported as 95%.
For `CC(=O)C(C(=O)c1ccc(Cl)cc1)=C1SC=CS1` [Compound 14, 2-(1,3-dithiol-2-ylidene)-1-(4-chlorophenyl)-1,3-butanedione], the inhibition in vivo at 50 mg/kg was 113%.
`CC(=O)C(C(=O)c1ccc(N)cc1)=C1SC=CS1` [Compound 46, 2-(1,3-dithiol-2-ylidene)-1-(4-aminophenyl)-1,3-butanedione] gave an inhibition in vivo at 50 mg/kg of 106%.
`CC(=O)C(C(=O)c1ccc(C)cc1)=C1SC=CS1` [Compound 12, 2-(1,3-dithiol-2-ylidene)-1-(4-methylphenyl)-1,3-butanedione] gave an inhibition in vivo at 50 mg/kg of 114%.
`O=C(C(C(=O)c1ccc(Cl)cc1)=C1SC=CS1)c1ccc(Cl)cc1` [Compound 35, 2-(1,3-dithiol-2-ylidene)-1,3-di(4-chlorophenyl)-1,3-propanedione] showed an inhibition in vivo at 50 mg/kg of 114%.
With `CC(=O)C(C(=O)c1cc2ccccc2[nH]1)=C1SC=CS1` [Compound 29, 2-(1,3-dithiol-2-ylidene)-1-(2-indolyl)-1,3-butanedione] the inhibition in vivo at 50 mg/kg was 104%.
`CC(=O)C(C(=O)Cc1ccccc1)=C1SC=CS1` [Compound 32, 3-(1,3-dithiol-2-ylidene)-1-phenyl-2,4-pentanedione] showed an inhibition in vivo at 50 mg/kg of 124%.
In the case of `O=C(C(C(=O)C(F)(F)F)=C1SC=CS1)c1ccccc1` [Compound 31, 2-(1,3-dithiol-2-ylidene)-1-phenyl-4,4,4-trifluoro-1,3-butanedione], the inhibition in vivo at 50 mg/kg is reported as 106%.
`O=C(C=Cc1ccccc1)C(C(=O)c1ccccc1)=C1SC=CS1` [Compound 38, 4-(1,3-dithiol-2-ylidene)-1,5-diphenyl-1-pentene-3,5-dione] showed an inhibition in vivo at 50 mg/kg of 96%.
`CC(=O)C(C(=O)c1ccc(Br)cc1)=C1SC=CS1` [Compound 15, 2-(1,3-dithiol-2-ylidene)-1-(4-bromophenyl)-1,3-butanedione] gave an inhibition in vivo at 50 mg/kg of 105%.

Same assay, conditions: Mus musculus, po; 50mg/kg orally 6 hours before carbon tetrachloride (0.05ml/kg orally); plasma GPT about 24.5 hours after CCl4; CCl4 alone 0, Normal 100; read-out: % Prophylaxis p-GPT
For `CC(=O)C(C(=O)c1cccnc1)=C1SC=CS1` [Compound 21, 2-(1,3-dithiol-2-ylidene)-1-(3-pyridyl)-1,3-butanedione], the inhibition in vivo at 50 mg/kg was 98%.
For `CC(=O)C(C(=O)c1ccncc1)=C1SC=CS1` [Compound 22, 2-(1,3-dithiol-2-ylidene)-1-(4-pyridyl)-1,3-butanedione], the inhibition in vivo at 50 mg/kg was 100%.
`CCCC(=O)C(C(=O)c1ccccc1)=C1SC=CS1` [Compound 7, 2-(1,3-dithiol-2-ylidene)-1-phenyl-1,3-hexanedione] was tested, and the inhibition in vivo at 50 mg/kg was 100%.
Molecule `CC(=O)C(C(=O)c1cnccn1)=C1SC=CS1` [Compound 26, 2-(1,3-dithiol-2-ylidene)-1-pyrazinyl-1,3-butanedione] has an inhibition in vivo at 50 mg/kg of 96%.
Molecule `COc1ccc(C(=O)C(C(C)=O)=C2SC=CS2)cc1OC` [Compound 18, 2-(1,3-dithiol-2-ylidene)-1-(3,4-dimethoxyphenyl)-1,3-butanedione] has an inhibition in vivo at 50 mg/kg of 54%.
With `COc1ccc(C(=O)C(C(C)=O)=C2SC=CS2)cc1` [Compound 17, 2-(1,3-dithiol-2-ylidene)-1-(4-methoxyphenyl)-1,3-butanedione] the inhibition in vivo at 50 mg/kg was 100%.
`COc1ccccc1C(=O)C(C(C)=O)=C1SC=CS1` [Compound 16, 2-(1,3-dithiol-2-ylidene)-1-(2-methoxyphenyl)-1,3-butanedione] gave an inhibition in vivo at 50 mg/kg of 99%.
`CC(=O)C(C(=O)c1ccc(Cl)cc1)=C1SC=CS1` [Compound 14, 2-(1,3-dithiol-2-ylidene)-1-(4-chlorophenyl)-1,3-butanedione] gave an inhibition in vivo at 50 mg/kg of 100%.
`CC(=O)C(C(=O)c1ccc(N)cc1)=C1SC=CS1` [Compound 46, 2-(1,3-dithiol-2-ylidene)-1-(4-aminophenyl)-1,3-butanedione] was tested, and the inhibition in vivo at 50 mg/kg was 100%.
For `CC(=O)C(C(=O)c1ccc(C)cc1)=C1SC=CS1` [Compound 12, 2-(1,3-dithiol-2-ylidene)-1-(4-methylphenyl)-1,3-butanedione], the inhibition in vivo at 50 mg/kg was 100%.
In the case of `O=C(C(C(=O)c1ccc(Cl)cc1)=C1SC=CS1)c1ccc(Cl)cc1` [Compound 35, 2-(1,3-dithiol-2-ylidene)-1,3-di(4-chlorophenyl)-1,3-propanedione], the inhibition in vivo at 50 mg/kg is reported as 100%.
Work on `CC(=O)C(C(=O)c1cc2ccccc2[nH]1)=C1SC=CS1` [Compound 29, 2-(1,3-dithiol-2-ylidene)-1-(2-indolyl)-1,3-butanedione] yielded an inhibition in vivo at 50 mg/kg of 100%.
For `CC(=O)C(C(=O)Cc1ccccc1)=C1SC=CS1` [Compound 32, 3-(1,3-dithiol-2-ylidene)-1-phenyl-2,4-pentanedione], the inhibition in vivo at 50 mg/kg was 95%.
In the case of `O=C(C(C(=O)C(F)(F)F)=C1SC=CS1)c1ccccc1` [Compound 31, 2-(1,3-dithiol-2-ylidene)-1-phenyl-4,4,4-trifluoro-1,3-butanedione], the inhibition in vivo at 50 mg/kg is reported as 100%.
`O=C(C=Cc1ccccc1)C(C(=O)c1ccccc1)=C1SC=CS1` [Compound 38, 4-(1,3-dithiol-2-ylidene)-1,5-diphenyl-1-pentene-3,5-dione] showed an inhibition in vivo at 50 mg/kg of 66%.
With `CC(=O)C(C(=O)c1ccc(Br)cc1)=C1SC=CS1` [Compound 15, 2-(1,3-dithiol-2-ylidene)-1-(4-bromophenyl)-1,3-butanedione] the inhibition in vivo at 50 mg/kg was 100%.

These molecules were tested on mice (ddY mice) (assay: Acute toxicity test). Conditions: oral in olive oil, mortality one week after the administration, n=5.
Assay type: in vivo
Description: A test compound was dissolved or suspended in olive oil and administered orally to mice (ddY mice, ? , 23±2g, n=5). The acute toxicity value (LD₅₀) was determined from the mortality one week after the administration.
With `CCCC(=O)C(C(=O)c1ccccc1)=C1SC=CS1` [Compound 7, 2-(1,3-dithiol-2-ylidene)-1-phenyl-1,3-hexanedione] the “acute toxicity value (LD50)” value was “at least 2 g”.
In the case of `COc1ccc(C(=O)C(C(C)=O)=C2SC=CS2)cc1` [Compound 17, 2-(1,3-dithiol-2-ylidene)-1-(4-methoxyphenyl)-1,3-butanedione], the “acute toxicity value (LD50)” value is reported as “at least 2 g”.
For `CC(=O)C(C(=O)c1ccc(C)cc1)=C1SC=CS1` [Compound 12, 2-(1,3-dithiol-2-ylidene)-1-(4-methylphenyl)-1,3-butanedione], the “acute toxicity value (LD50)” value was “at least 2 g”.
